Results on 13 compounds are retold here after patent US11149031B2, “Substituted N-(3-fluoropropyl)-pyrrolidine compounds, processes for their preparation and therapeutic uses thereof” (SANOFI, priority 2016, dated 2021).

For assay [1], the target named is His6-ERα298-554 WT (ERα ligand-binding domain) (Homo sapiens (Human), UniProt P03372). As to the kind of experiment: Test A: biochemical antagonist activity, LanthaScreen TR-FRET ERα coactivator assay, WT. Particulars: asterisk (*): protocol using 10 nM estradiol; read-out: Antagonism WT IC50. An outline of the steps: (§1)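 His6-ERα LBD (0.5 nM) with 0.5 nM Tb-anti-His6 antibody, 250 nM PGC1a peptide and 3 nM (or 10 nM) estradiol in 100 mM potassium phosphate pH 7.4 with 5 mM DTT, incubated overnight at room temperature with compound.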
A general note: In TR-FRET formats the signal depends on donor and acceptor labels being close together.

Assay [2] has as its target His6-ERα298-554 D538G mutant (ERα ligand-binding domain) (Homo sapiens (Human), UniProt P03372, D538G). Nature of the assay: Test A: biochemical antagonist activity, LanthaScreen TR-FRET ERα coactivator assay, D538G mutant. The note with it: asterisk (*): protocol using 10 nM estradiol; read-out: Antagonism D538G IC50. An outline of the steps: as §1
In assay [3] the target is His6-ERα298-554 Y537S mutant (ERα ligand-binding domain) (Homo sapiens (Human), UniProt P03372, Y537S). Nature of the assay: Test A: biochemical antagonist activity, LanthaScreen TR-FRET ERα coactivator assay, Y537S mutant. Particulars: asterisk (*): protocol using 10 nM estradiol; read-out: Antagonism Y537S IC50. The essentials:
as §1

The subject of assay [4] is MCF7 cells (breast tumor cells) WT. Nature of the assay: Test B: cell proliferation/viability assay (CellTiter-Glo) on MCF7 WT. The format is cell-based. Particulars: Homo sapiens, MCF7, 168 h, 7 days of compound exposure. The essentials: (§2)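 Compound exposure lasted 7 days (3-0.000001 μM final, 9 points) in phenol red-free MEM with 5% charcoal dextran-stripped FBS. The mutant lines grew without estradiol. Luminescent signal, minus medium-only background, was expressed as percent of untreated cells.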

Assay [5] deals with MCF7 cells expressing mutant estrogen receptor Tyr 537 Ser. Nature of the assay: Test B: cell proliferation/viability assay (CellTiter-Glo) on MCF7 Tyr 537 Ser mutant. The format is cell-based. The note with it: Homo sapiens, MCF7, 168 h, MCF7 cells expressing ER Tyr 537 Ser mutant, 7 days of compound exposure, read-out: proliferation MCF7 Y537S IC50. The essentials: as §2
A general note: ATP-based viability assays read luminescence as a measure of living cells.

Assay [6] concerns MCF7 cells expressing mutant estrogen receptor Asp 538 Gly. As to the kind of experiment: Test B: cell proliferation/viability assay (CellTiter-Glo) on MCF7 Asp 538 Gly mutant. The format is cell-based. The note with it: Homo sapiens, MCF7, 168 h, MCF7 cells expressing ER Asp 538 Gly mutant, 7 days of compound exposure, read-out: proliferation MCF7 D538G IC50. The essentials:
as §2

The next assay has as its target ERα in MCF7 cells (Homo sapiens (Human), UniProt P03372). As to the kind of experiment: Test C: estrogen receptor degradation activity, ERα in cell western assay in MCF7 cells. The format is cell-based. Particulars: for DC50: 4 hours post compound addition, ERα in cell western, read-out: Degradation IC50; for % Degradation at 3 μM: 4 hours, relative to fulvestrant. An outline of the steps: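 Steps: seed MCF7 in phenol red-free medium containing 5% charcoal-dextran stripped FBS; next day add compound, final 3–0.000018 μM; after 4 h fix with 5% formalin plus 0.1% Triton; stain ERα overnight, then secondary at 37 °C for 60 min with Syto-64 at 2 μM; scan green and red intensities.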

Sequence of ERα in MCF7 cells (P03372 whole entry): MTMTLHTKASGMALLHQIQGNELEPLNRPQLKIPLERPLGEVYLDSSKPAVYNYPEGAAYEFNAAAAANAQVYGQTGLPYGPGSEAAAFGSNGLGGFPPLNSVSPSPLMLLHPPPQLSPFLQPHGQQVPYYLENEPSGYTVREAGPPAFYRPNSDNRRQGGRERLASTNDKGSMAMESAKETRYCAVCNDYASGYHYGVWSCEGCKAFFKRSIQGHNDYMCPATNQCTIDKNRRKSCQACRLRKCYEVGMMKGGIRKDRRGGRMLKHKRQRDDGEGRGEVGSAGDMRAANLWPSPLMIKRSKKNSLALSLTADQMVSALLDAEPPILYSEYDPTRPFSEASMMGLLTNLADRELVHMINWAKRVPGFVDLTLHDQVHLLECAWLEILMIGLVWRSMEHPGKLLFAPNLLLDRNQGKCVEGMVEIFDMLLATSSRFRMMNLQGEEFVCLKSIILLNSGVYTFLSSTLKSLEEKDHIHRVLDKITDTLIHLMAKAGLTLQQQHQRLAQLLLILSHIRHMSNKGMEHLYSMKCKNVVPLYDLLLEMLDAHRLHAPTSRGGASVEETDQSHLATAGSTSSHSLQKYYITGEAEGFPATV
Sequence of His6-ERα298-554 Y537S mutant (ERα ligand-binding domain) (P03372 298-554 Y537S): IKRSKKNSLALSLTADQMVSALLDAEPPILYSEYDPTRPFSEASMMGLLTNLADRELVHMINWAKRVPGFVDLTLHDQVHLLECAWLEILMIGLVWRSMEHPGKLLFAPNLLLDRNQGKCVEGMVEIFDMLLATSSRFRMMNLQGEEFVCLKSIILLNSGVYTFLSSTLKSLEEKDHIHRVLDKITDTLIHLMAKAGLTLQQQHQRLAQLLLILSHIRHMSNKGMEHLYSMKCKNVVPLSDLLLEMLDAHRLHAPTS
Sequence of His6-ERα298-554 D538G mutant (ERα ligand-binding domain) (P03372 298-554 D538G): as the sequence (P03372 298-554 Y537S) above, with S240Y, D241G counted along it
Sequence of His6-ERα298-554 WT (ERα ligand-binding domain) (P03372 298-554): as the sequence (P03372 298-554 Y537S) above, with S240Y counted along it

Consider `CCOc1ccc(C2=C(c3ccc(O[C@H]4CCN(CCCF)C4)nc3)c3ccc(O)cc3SCC2)c(F)n1` [Example 208, 4-(6-ethoxy-2-fluoro-3-pyridyl)-5-[6-[(3S)-1-(3-fluoropropyl)pyrrolidin-3-yl]oxy-3-pyridyl]-2,3-dihydro-1-benzothiepin-8-ol], for which the IC50 in assay [1] amounted to 0.6 nM; in assay [2], 7 nM; in assay [3] it was 5 nM; in assay [4], 0.2 nM; in assay [5], 4 nM; in assay [6], 0.7 nM. Also, at ERα in MCF7 cells, the DC50 came to 0.4 nM. Further, the “% Degradation at 3 μM” value at ERα in MCF7 cells worked out at 86%.

As to `[2H]C([2H])([2H])Oc1ccc(C2=C(c3ccc(O[C@H]4CCN(CCCF)C4)cc3)c3ccc(O)cc3SCC2)c(F)c1` [Example 209, 5-[4-[(3S)-1-(3-fluoropropyl)pyrrolidin-3-yl]oxyphenyl]-4-[2-fluoro-4-(trideuteriomethoxy)phenyl]-2,3-dihydro-1-benzothiepin-8-ol], the IC50 in assay [1] was 2 nM; in assay [2] it was 35 nM; in assay [3] it was 20 nM; in assay [4], 0.3 nM; in assay [5] it was 4 nM; in assay [6], 0.7 nM. In addition, at ERα in MCF7 cells, the DC50 turned out to be 0.4 nM. Moreover, the “% Degradation at 3 μM” value at ERα in MCF7 cells worked out at 92%.

With `Cc1ccc(C2=C(c3ccc(O[C@H]4CCN(CCCF)C4)cc3)c3ccc(C(=O)O)cc3SCC2)c(F)c1` [Example 210, 4-(2-fluoro-4-methyl-phenyl)-5-[4-[(3S)-1-(3-fluoropropyl)pyrrolidin-3-yl]oxyphenyl]-2,3-dihydro-1-benzothiepine-8-carboxylic acid], the IC50 in assay [1] was 103 nM; in assay [2] it was 2220 nM; in assay [3], 1330 nM; in assay [4], 0.8 nM; in assay [5] it was 15 nM; in assay [6], 1 nM. The DC50 at ERα in MCF7 cells is 2 nM. Further, at ERα in MCF7 cells, the “% Degradation at 3 μM” value is listed as 89%.

Take `Cc1cc(C2=C(c3ccc(O[C@H]4CCN(CCCF)C4)cc3)c3ccc(C(=O)O)cc3SCC2)ccc1Cl` [Example 211, 4-(4-chloro-3-methyl-phenyl)-5-[4-[(3S)-1-(3-fluoropropyl)pyrrolidin-3-yl]oxyphenyl]-2,3-dihydro-1-benzothiepine-8-carboxylic acid]: the IC50 in assay [1] was 39 nM; in assay [2] it was 964 nM; in assay [3] it was 475 nM; in assay [4], 0.4 nM; in assay [5], 10 nM; in assay [6] it was 0.6 nM. For the same compound, the DC50 on ERα in MCF7 cells came out at 0.3 nM. Moreover, on ERα in MCF7 cells, the “% Degradation at 3 μM” value is given as 93%.

Consider `Oc1ccc2c(c1)SCCC(c1ccc(OC(F)(F)F)cc1F)=C2c1ccc(O[C@H]2CCN(CCCF)C2)cc1` [Example 212, 5-[4-[(3S)-1-(3-fluoropropyl)pyrrolidin-3-yl]oxyphenyl]-4-[2-fluoro-4-(trifluoromethoxy)phenyl]-2,3-dihydro-1-benzothiepin-8-ol], for which the IC50 in assay [1] worked out at 34 nM; in assay [2], 800 nM; in assay [3] it was 412 nM; in assay [4], 0.4 nM; in assay [5], 3 nM; in assay [6], 0.5 nM. Besides, the DC50 at ERα in MCF7 cells was determined as 2 nM. Also, the “% Degradation at 3 μM” value at ERα in MCF7 cells is listed as 90%.

As to `Oc1ccc2c(c1)SCCC(c1ccc(OC(F)F)cc1F)=C2c1ccc(O[C@H]2CCN(CCCF)C2)cc1` [Example 213, 4-[4-(difluoromethoxy)-2-fluoro-phenyl]-5-[4-[(3S)-1-(3-fluoropropyl)pyrrolidin-3-yl]oxyphenyl]-2,3-dihydro-1-benzothiepin-8-ol], the IC50 in assay [1] is 4 nM; in assay [2] it was 96 nM; in assay [3], 55 nM; in assay [4] it was 0.3 nM; in assay [5], 2 nM; in assay [6] it was 0.2 nM. For the same compound, on ERα in MCF7 cells, the DC50 was 0.9 nM. For the same compound, the “% Degradation at 3 μM” value at ERα in MCF7 cells is reported as 86%.

Consider `Oc1ccc2c(c1)SCCC(c1ccc(OC(F)(F)F)cc1)=C2c1ccc(O[C@H]2CCN(CCCF)C2)cc1` [Example 214, 5-[4-[(3S)-1-(3-fluoropropyl)pyrrolidin-3-yl]oxyphenyl]-4-[4-(trifluoromethoxy)phenyl]-2,3-dihydro-1-benzothiepin-8-ol], for which the IC50 in assay [1] is 38 nM; in assay [2], 539 nM; in assay [3], 457 nM; in assay [4], 0.4 nM; in assay [5], 6 nM; in assay [6] it was 0.7 nM. For the same compound, the DC50 on ERα in MCF7 cells was 1 nM. Further, the “% Degradation at 3 μM” value at ERα in MCF7 cells was 82%.

In the case of `Oc1ccc2c(c1)SCCC(c1ccc(F)nc1F)=C2c1ccc(O[C@H]2CCN(CCCF)C2)cc1` [Example 215, 4-(2,6-difluoro-3-pyridyl)-5-[4-[(3S)-1-(3-fluoropropyl)pyrrolidin-3-yl]oxyphenyl]-2,3-dihydro-1-benzothiepin-8-ol], the IC50 came to 8 nM in assay [1]; 190 nM in assay [2]; 86 nM in assay [3]; 0.1 nM in assay [4]; 3 nM in assay [5]; 0.2 nM in assay [6]. Besides, the DC50 on ERα in MCF7 cells worked out at 0.2 nM. In addition, the “% Degradation at 3 μM” value on ERα in MCF7 cells came out at 93%.

For the compound `CC(C)(C)c1ccc(C2=C(c3ccc(O[C@H]4CCN(CCCF)C4)cc3)c3ccc(O)cc3SCC2)cc1` [Example 216, 4-(4-tert-butylphenyl)-5-[4-[(3S)-1-(3-fluoropropyl)pyrrolidin-3-yl]oxyphenyl]-2,3-dihydro-1-benzothiepin-8-ol], the IC50 stood at 33 nM in assay [1]; 662 nM in assay [2]; 543 nM in assay [3]; 0.6 nM in assay [4]; 13 nM in assay [5]; 1 nM in assay [6]. Also, the DC50 at ERα in MCF7 cells stood at 0.2 nM. At ERα in MCF7 cells, the “% Degradation at 3 μM” value is on record as 88%.

On to `CCOc1ccc(C2=C(c3ccc(O[C@H]4CCN(CCCF)C4)cc3)c3ccc(O)cc3SCC2)c(F)c1F` [Example 217, 4-(4-ethoxy-2,3-difluoro-phenyl)-5-[4-[(3S)-1-(3-fluoropropyl)pyrrolidin-3-yl]oxyphenyl]-2,3-dihydro-1-benzothiepin-8-ol], for which the IC50 in assay [1] came to 4 nM; in assay [2] it was 61 nM; in assay [3] it was 39 nM; in assay [4], 0.1 nM; in assay [5], 5 nM; in assay [6] it was 0.6 nM. For the same compound, the DC50 on ERα in MCF7 cells worked out at 0.2 nM. Moreover, the “% Degradation at 3 μM” value at ERα in MCF7 cells turned out to be 87%.

Consider `Oc1ccc2c(c1)SCCC(c1ccc(OCF)cc1)=C2c1ccc(O[C@H]2CCN(CCCF)C2)cc1` [Example 218, 4-[4-(fluoromethoxy)phenyl]-5-[4-[(3S)-1-(3-fluoropropyl)pyrrolidin-3-yl]oxyphenyl]-2,3-dihydro-1-benzothiepin-8-ol], for which the IC50 in assay [1] was determined as 1 nM; in assay [2], 25 nM; in assay [3] it was 22 nM; in assay [4] it was 0.1 nM; in assay [5], 1 nM; in assay [6], 0.1 nM. Further, the DC50 on ERα in MCF7 cells was 0.2 nM. For the same compound, at ERα in MCF7 cells, the “% Degradation at 3 μM” value was 78%.

As for `Cc1noc(C)c1C1=C(c2ccc(O[C@H]3CCN(CCCF)C3)cc2)c2ccc(O)cc2SCC1` [Example 219, 4-(3,5-dimethylisoxazol-4-yl)-5-[4-[(3S)-1-(3-fluoropropyl)pyrrolidin-3-yl]oxyphenyl]-2,3-dihydro-1-benzothiepin-8-ol], the IC50 in assay [1] was 12 nM; in assay [2], 233 nM; in assay [3] it was 149 nM; in assay [4] it was 0.1 nM; in assay [5] it was 2 nM; in assay [6] it was 0.4 nM. Besides, the DC50 at ERα in MCF7 cells was 0.2 nM. Also, the “% Degradation at 3 μM” value at ERα in MCF7 cells is 90%.

For the compound `CCOc1cc(F)c(C2=C(c3ccc(O[C@H]4CCN(CCCF)C4)cc3)c3ccc(O)cc3SCC2)cc1F` [Example 220, 4-(4-ethoxy-2,5-difluoro-phenyl)-5-[4-[(3S)-1-(3-fluoropropyl)pyrrolidin-3-yl]oxyphenyl]-2,3-dihydro-1-benzothiepin-8-ol], the IC50 in assay [1] is 8 nM; in assay [2] it was 164 nM; in assay [3], 84 nM; in assay [4], 0.4 nM; in assay [5] it was 5 nM; in assay [6] it was 0.5 nM. Further, the DC50 on ERα in MCF7 cells amounted to 0.2 nM. On ERα in MCF7 cells, the “% Degradation at 3 μM” value is reported as 89%.
